Data as given in US9290515B2, “Cephem derivative having catechol group” (SHIONOGI & CO., LTD., priority 2011, dated 2016).
In brackets after ≈: the same amount, converted by molar mass. Read-outs that look alike come from different tables or passages of the source.

Columns and labels:
Assay type in all cases: cell-based
[1] = system: E. coli ATCC BAA-196_TEM-10; test: MIC by broth microdilution (CLSI), E. coli ATCC BAA-196; details: Escherichia coli
Protocol: (§1) Measurement of a minimum growth inhibition concentration (MIC: μg/mL) was performed according to CLSI (Clinical and Laboratory Standards Institute) method, by broth microdilution method, using an inoculation microbe amount of 10000 cfu/well and cation-adjusted Mueller Hinton broth containing human-derived 20 μM apo-transferrin as a test medium.

[2] = system: K. pneumoniae ATCC 700603_SHV18; test: MIC by broth microdilution (CLSI), K. pneumoniae ATCC 700603; details: Klebsiella pneumoniae
Protocol: as §1

P. aeruginosa SR24 = test: MIC by broth microdilution (CLSI), P. aeruginosa SR24; details: Pseudomonas aeruginosa
Protocol: as §1

[3] = system: P. aeruginosa SR27001(MDRP, IMP-1+); test: MIC by broth microdilution (CLSI), P. aeruginosa SR27001; details: Pseudomonas aeruginosa, read-out: minimum growth inhibition concentration (MIC)
Protocol: as §1

[4] = system: P. aeruginosa SR27060(metallo); test: MIC by broth microdilution (CLSI), P. aeruginosa SR27060; details: Pseudomonas aeruginosa; P. aeruginosa SR27060, IMP-1, MBL producing carbapenem-resistant strain; 10000 cfu/well; cation-adjusted Mueller Hinton broth with 20 μM human apo-transferrin; read-out: minimum growth inhibition concentration (MIC)
Protocol: as §1

A. baumannii SR24396 = test: MIC by broth microdilution (CLSI), A. baumannii SR24396; details: Acinetobacter baumannii, 10000 cfu/well, cation-adjusted Mueller Hinton broth with 20 μM human apo-transferrin, read-out: minimum growth inhibition concentration (MIC)
Protocol: as §1

[5] = ATCCBAA196, E. coli ATCC BAA-196, TEM-10, ESBL producing strain, 10000 cfu/well, cation-adjusted Mueller Hinton broth with 20 μM human apo-transferrin, read-out: minimum growth inhibition concentration (MIC)
[6] = ATCC700603, K. pneumoniae ATCC 700603, SHV-18, ESBL producing strain, 10000 cfu/well, cation-adjusted Mueller Hinton broth with 20 μM human apo-transferrin, read-out: minimum growth inhibition concentration (MIC)
[7] = P. aeruginosa SR24, Ceftazidime-sensitive strain, 10000 cfu/well, cation-adjusted Mueller Hinton broth with 20 μM human apo-transferrin, read-out: minimum growth inhibition concentration (MIC)
[8] = P. aeruginosa SR27001, MDRP, IMP-1, MBL producing carbapenem-resistant strain, 10000 cfu/well, cation-adjusted Mueller Hinton broth with 20 μM human apo-transferrin

| SMILES | MIC [1, 5] | MIC [2, 6] | MIC (P. aeruginosa SR24; [7]) | MIC [3, 8] | MIC (A. baumannii SR24396) | MIC [4] | MIC ([1]; ATCCBAA196, read-out: minimum growth inhibition concentration (MIC)) | MIC ([2]; ATCC700603, read-out: minimum growth inhibition concentration (MIC)) | MIC (P. aeruginosa SR24; SR24, read-out: minimum growth inhibition concentration (MIC)) | MIC [3] |
| --- | --- | --- | --- | --- | --- | --- | --- | --- | --- | --- |
| Nc1nc(/C(=N/OC(CNC(=O)c2ccc(O)c(O)c2Cl)C(=O)[O-])C(=O)N[C@@H]2C(=O)N3C(C(=O)[O-])=C(C[N+]45CCC(CC4)CC5)CS[C@H]23)c(Cl)s1.[Na+] (stereo partly shown) [Compound I-15] | 1 mg/L | 1 mg/L | 0.25 mg/L | 4 mg/L | – | – | – | – | – | – |
| Nc1nc(/C(=N/O[C@@H](CNC(=O)c2ccc(O)c(O)c2Cl)C(=O)[O-])C(=O)N[C@@H]2C(=O)N3C(C(=O)[O-])=C(C[N+]45CCC(CNC(=O)CC[C@H](N)C(=O)O)(CC4)CC5)CS[C@H]23)cs1.[Na+] [Compound I-12] | 2 mg/L | 1 mg/L | 0.25 mg/L | 4 mg/L | – | – | – | – | – | – |
| CC1(C)CCc2ccc[n+](CC3=C(C(=O)[O-])N4C(=O)[C@@H](NC(=O)/C(=N\O[C@@H](CNC(=O)c5ccc(O)c(O)c5Cl)C(=O)[O-])c5csc(N)n5)[C@H]4SC3)c21.[Na+] [Compound I-14] | 0.5 mg/L | 1 mg/L | 0.5 mg/L | – | – | – | – | – | – | – |
| CC(C)(O/N=C(\C(=O)N[C@@H]1C(=O)N2C(C(=O)[O-])=C(C[N@+]3(C)[C@@H]4CC[C@H]3C[C@@H](N)C4)CS[C@H]12)c1ccc(O)c(O)c1Cl)C(=O)O [Compound I-20] | 2 mg/L (≈ 3.07 µM) | – | – | – | – | 4 mg/L (≈ 6.13 µM) | – | – | – | – |
| C[N+]1(CC2=C(C(=O)[O-])N3C(=O)[C@@H](NC(=O)/C(=N\OC(CNC(=O)c4ccc(O)c(O)c4Cl)C(=O)[O-])c4csc(N)n4)[C@H]3SC2)[C@@H]2CC[C@H]1C[C@@H](NC(=O)CC[C@H](N)C(=O)O)C2.[Na+] (stereo partly shown) [Compound I-26] | – | – | – | – | – | – | 1 mg/L | 1 mg/L | 1 mg/L | 4 mg/L |
| Nc1nc(/C(=N/OC(CNC(=O)c2ccc(O)c(O)c2Cl)C(=O)[O-])C(=O)N[C@@H]2C(=O)N3C(C(=O)[O-])=C(C[N+]45CCC(CC4)CC5)CS[C@H]23)ns1.[Na+] (stereo partly shown) [Compound I-17] | 4 mg/L | 8 mg/L | 0.25 mg/L | – | – | – | – | – | – | – |

Further lines, with some results ahead:

| MIC [1, 5] | MIC [2, 6] | MIC (P. aeruginosa SR24; [7]) | MIC [3, 8] | MIC (A. baumannii SR24396) | SMILES | MIC [4] | MIC ([1]; ATCCBAA196, read-out: minimum growth inhibition concentration (MIC)) | MIC ([2]; ATCC700603, read-out: minimum growth inhibition concentration (MIC)) | MIC (P. aeruginosa SR24; SR24, read-out: minimum growth inhibition concentration (MIC)) | MIC [3] |
| --- | --- | --- | --- | --- | --- | --- | --- | --- | --- | --- |
| 0.25 mg/L | 0.25 mg/L | 0.5 mg/L | 1 mg/L | – | NCC[N+]1(CC2=C(C(=O)[O-])N3C(=O)[C@@H](NC(=O)/C(=N\OC(C[C@H](NC(=O)c4ccc(O)c(O)c4Cl)C(=O)[O-])C(=O)O)c4csc(N)n4)[C@H]3SC2)CCCC1.[Na+] (stereo partly shown) [Compound I-31] | – | – | – | – | – |
| 0.5 mg/L | 2 mg/L | 0.25 mg/L | 8 mg/L | – | Nc1nc(/C(=N/OC(CNC(=O)c2ccc(O)c(O)c2Cl)C(=O)[O-])C(=O)N[C@@H]2C(=O)N3C(C(=O)[O-])=C(C[N+]4(CCNC(=O)C[C@@H](N)CC(=O)O)CCCC4)CS[C@H]23)c(Cl)s1.[Na+] (stereo partly shown) [Compound I-30] | – | – | – | – | – |
| 0.5 mg/L | 1 mg/L | 0.25 mg/L | 8 mg/L | – | Nc1nc(/C(=N/OC(CNC(=O)c2ccc(O)c(O)c2Cl)C(=O)[O-])C(=O)N[C@@H]2C(=O)N3C(C(=O)[O-])=C(C[N+]45CCCC4CCC5)CS[C@H]23)c(Cl)s1.[Na+] (stereo partly shown) [Compound I-28] | – | – | – | – | – |
| 1 mg/L | 4 mg/L | 0.25 mg/L | 4 mg/L | – | C[N+]1(CC2=C(C(=O)[O-])N3C(=O)[C@@H](NC(=O)/C(=N\O[C@@H](CNC(=O)c4ccc(O)c(O)c4Cl)C(=O)[O-])c4csc(N)n4)[C@H]3SC2)CC2CCCC2C1.[Na+] (stereo partly shown) [Compound I-11] | – | – | – | – | – |
| 8 mg/L | – | – | – | ≤ 0.031 mg/L | Nc1nc(/C(=N/OC[C@H](NC(=O)c2ccc(O)c(O)c2Cl)C(=O)[O-])C(=O)N[C@@H]2C(=O)N3C(C(=O)[O-])=C(Cn4ccc(=O)c(O)c4)CS[C@H]23)cs1.[Na+].[Na+] [Compound I-5] | – | – | – | – | – |
| 0.25 mg/L (≈ 0.332 µM) | 4 mg/L (≈ 5.31 µM) | 0.125 mg/L (≈ 0.166 µM) | 0.25 mg/L (≈ 0.332 µM) | 0.063 mg/L (≈ 0.0836 µM) | NCC[N+]1(CC2=C(C(=O)[O-])N3C(=O)[C@@H](NC(=O)/C(=N\OC[C@H](NC(=O)c4ccc(O)c(O)c4Cl)C(=O)O)c4csc(N)n4)[C@H]3SC2)CCCC1 [Compound I-2] | 0.125 mg/L (≈ 0.166 µM) | – | – | – | – |
| 0.5 mg/L | – | 0.125 mg/L | – | – | CC1(C)CCc2ccc[n+](CC3=C(C(=O)[O-])N4C(=O)[C@@H](NC(=O)/C(=N\OC[C@H](NC(=O)c5ccc(O)c(O)c5Cl)C(=O)[O-])c5csc(N)n5)[C@H]4SC3)c21.[Na+] [Compound I-4] | – | – | – | – | – |
